Experimental data taken from patent US7605168B2 (Plexxikon, Inc., priority 2004, dated 2009).

Columns and labels:
[1] = test system: TNFα levels in serum of LPS-challenged rats; test: Rat inhibition studies: serum TNFα after iv LPS challenge; assay type: in vivo; conditions: 5 mg/kg po, LPS 0.1 mg/kg iv 2 h after dosing, percent decrease in serum TNFα versus vehicle, read-out: % inhibition r TNFα
Experimental: All studies were done with male rats CD (SD) IGS BR (Crl) (Charles River, France), which were grouped in to 5 animal groups.
At the end of the acclimatization period, the non-fasted rats were weighed, individually identified on the tail with a permanent marker and administered by oral (po) or interperitoneal (ip) route with either vehicle, reference or test compound in a volume of 10 mL/kg adapted to the body weight. The animals were gathered in groups of 5 animals in a polystyrene labeled cage with sawdust covered floors. 2-hours after vehicle, reference or test substance administration, rats received an intravenous (iv) injection of 0.1 mg/kg LPS in a volume of 1 mL/kg of body weight. 2 h after LPS challenge (or as indicated in Tables 3B and 4B), blood samples were collected into tubes without anticoagulant by retro-orbital puncture under gas (isoflurane) anesthesia. Samples were allowed to clot at room temperature for 5 to 10 min then put on ice until there were prepared by centrifugation (6000×g for 3 min at 4° C.) and stored at −20° C. until use. TNFα levels were measured in serum samples in duplicate by ELISA technique according to the manufacturer's procedure (Rat TNFα kit Quantikine M (RTA00, R&D System, France)). Data are reported as percent decrease in observed TNFα levels versus TNFα levels observed for vehicle dosed animal groups.

[2] = biological target: T1, PDE4D: catalytic domain S316-V692 (Homo sapiens, UniProt Q08499); test: PDE4 IC50 determination by Scintillation Proximity Assay (SPA), PDE4D catalytic domain; assay type: biochemical; conditions: [3H]cAMP SPA, 30 min at 30° C.
T1 construct: pET15S PDE4D S316-V692-X; His6 (N, cleaved yes); thrombin cleavage site (N, cleaved yes); made in house; host or cells: E. coli BL21 (DE3) RIL
Experimental: IC50s were determined by Scintillation Proximity Assay (SPA). The principle of the assay is based on the fact that cAMP, the PDE4 substrate, binds weakly to Yittrium Silicate SPA beads, whereas AMP, the product of PDE4 hydrolysis binds strongly. Thus, the extent of PDE4 hydrolysis of a sample of [^3H]cAMP can be measured because only the [^3H]AMP produced by PDE4 hydrolysis will bind to the SPA beads and produce a scintillation signal.
[…] Enzyme was stored in 50% glycerol at −20°. See Example 144.
Compounds tested (see Tables 5 for compounds and results) were 3-fold serially diluted 11 times in DMSO from a starting concentration of 4 mM or 40 μM, depending on compound potency. 1 μl of each dilution was transferred into duplicate wells of a white polystyrene 384-well assay plate (Corning #3710). In addition to the compound dilutions, each assay plate contained control wells with 1 μl of DMSO (to define 0% enzyme inhibition) or 1 μl of 200 μM roflumilast (to define 100% enzyme inhibition). Using a Beckman FX robot, 10 μl of [^3H] cAMP (Amersham TRK559) at […] in assay buffer (50 mM Tris, pH 7.5; 8.3 mM MgCl; 1.7 mM EGTA; 0.01% BSA) was transferred to each assay well. Next, 10 μl of PDE4 enzyme in assay buffer was added and the plates were shaken for 30 s. at 1000 rpm to start the cAMP hydrolysis reaction. The concentrations of enzyme used were: PDE4B, 80 ng/ml; PDE4D, 4 ng/ml; PDE4B2, 2.5 μl of 50% glycerol stock/ml; PDE4D5 0.083 μl of 50% glycerol stock/ml. Assay plates were covered and incubated for 30 min. at 30° C. Reactions were stopped by robotic addition of 10 μl of 5 mg/ml SPA beads (Amersham RPNQ0013) in 18 mM ZnSO4. The assay plates were covered with clear plastic film, centrifuged for 1 min. at 1000 RPM to settle the SPA beads, and counted using a Wallac TriLux scintillation counter. IC50's were calculated from the raw assay data by non-linear regression curve fitting using the Assay Explorer software package from MDL.

[3] = biological target: T2, PDE4D5: full-length human PDE4D5 isozyme (Homo sapiens, UniProt Q08499); test: PDE4 IC50 determination by Scintillation Proximity Assay (SPA), full-length PDE4D5; assay type: biochemical; conditions: cell lysate, [3H]cAMP SPA
T2 construct: made in house; host or cells: baculovirus infected insect cells (pFastBacHT)
Summary of the method: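 Unpurified enzyme from cell lysates (PDE4B2 2.5 μl, PDE4D5 0.083 μl of 50% glycerol stock/ml) hydrolysing [3H]cAMP in 50 mM Tris pH 7.5, 8.3 mM MgCl, 1.7 mM EGTA, 0.01% BSA, 30 min at 30 °C. Stopped with yttrium silicate SPA beads in 18 mM ZnSO4; bead-bound [3H]AMP counted. IC50 by non-linear regression.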

T2 sequence (Q08499 with tags, fused parts or gaps isoform Q08499-6): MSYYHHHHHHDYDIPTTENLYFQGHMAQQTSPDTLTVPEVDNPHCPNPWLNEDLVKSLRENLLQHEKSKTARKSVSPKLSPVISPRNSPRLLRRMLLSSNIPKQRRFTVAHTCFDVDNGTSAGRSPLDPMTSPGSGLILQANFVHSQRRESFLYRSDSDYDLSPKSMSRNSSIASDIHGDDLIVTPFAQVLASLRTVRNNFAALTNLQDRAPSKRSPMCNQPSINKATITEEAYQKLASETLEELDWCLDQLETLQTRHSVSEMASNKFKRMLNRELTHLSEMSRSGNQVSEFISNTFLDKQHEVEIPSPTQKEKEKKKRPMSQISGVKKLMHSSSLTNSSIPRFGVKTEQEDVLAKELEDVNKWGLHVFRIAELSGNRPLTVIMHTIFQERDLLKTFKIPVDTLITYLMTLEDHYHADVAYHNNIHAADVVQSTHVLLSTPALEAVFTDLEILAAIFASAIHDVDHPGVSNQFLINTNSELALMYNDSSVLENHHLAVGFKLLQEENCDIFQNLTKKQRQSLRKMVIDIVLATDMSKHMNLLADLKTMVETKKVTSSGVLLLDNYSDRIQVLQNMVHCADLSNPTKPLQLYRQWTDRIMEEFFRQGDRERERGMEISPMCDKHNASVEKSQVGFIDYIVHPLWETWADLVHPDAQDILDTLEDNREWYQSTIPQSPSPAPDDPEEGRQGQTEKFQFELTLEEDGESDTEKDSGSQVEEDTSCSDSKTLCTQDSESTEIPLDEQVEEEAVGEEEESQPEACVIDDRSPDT
T1 sequence (Q08499 380-756): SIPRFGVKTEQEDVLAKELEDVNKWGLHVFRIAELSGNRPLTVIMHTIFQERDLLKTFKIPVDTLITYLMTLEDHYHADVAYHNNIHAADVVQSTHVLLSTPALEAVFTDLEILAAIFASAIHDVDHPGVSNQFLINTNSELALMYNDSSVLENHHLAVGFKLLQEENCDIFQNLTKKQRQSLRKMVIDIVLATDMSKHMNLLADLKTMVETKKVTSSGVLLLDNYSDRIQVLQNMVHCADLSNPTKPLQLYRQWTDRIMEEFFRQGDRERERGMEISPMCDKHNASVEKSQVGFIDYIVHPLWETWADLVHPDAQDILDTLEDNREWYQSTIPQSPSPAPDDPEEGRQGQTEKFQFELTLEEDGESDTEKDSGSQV

Structure (SMILES) | inhibition in vivo at 5 mg/kg [1] [%] | IC50 [2] [µM] | IC50 [3] [µM]
CCOc1ccccc1C(=O)n1cc(-c2ccc(OC)c(OC)c2)c2cccnc21 [Compound 61, [3-(3,4-Dimethoxy-phenyl)-pyrrolo[2,3-b]pyridin-1-yl]-(2-ethoxy-phenyl)-methanone-amide] | ≥ 20 | ≤ 10 | < 10
CCOc1ccc2ccccc2c1C(=O)n1cc(-c2ccc(OC)c(OC)c2)c2cccnc21 [Compound 52, [3-(3,4-Dimethoxy-phenyl)-pyrrolo[2,3-b]pyridin-1-yl]-(2-ethoxy-naphthalen-1-yl)-methanone] | ≥ 20 | ≤ 10 | < 10
